In patent US9884812B2, “Use of DDX3X inhibitors for the treatment of pneumovirus infections” (priority 2014, dated 2018):
Where two headings read alike, the source gives them in different places.

Tests used:
[1] = Solubility in cell medium; type: physicochemical; conditions: solution of ligand in DMSO (20 mM) diluted in cell media to 100 μM; scale from 'very poor' (almost insoluble) to 'very good' (freely soluble over extended periods at 4° C.)
[2] = test system: HEp2 or BSC1 cells; test: Toxicity to cells in the TCID50 screen (mock control); type: cell-based
Method: This method provides a rapid approach to initially screen compounds and was developed as an increased number of compounds were synthesised. […] Virus was then added over 5 different half log dilutions starting at a multiplicity of infection of 0.02 plus mock control. Three dilutions of compound plus a DMSO control were screened per plate. […] Identical plate repeats for each compound dilution were fixed in subsequent days as indicated.

[3] = cellular RSV TCID50 assay tables

Solubility in cell medium [1] | Compound | Toxicity [2, 3] | Toxicity [2]
moderate | CC1CCCCC1NC(=O)Nc1ccc(C#N)cc1 (stereo not shown) [Compound 22, 1-(4-cyanophenyl)-3-(2-methylcyclohexyl)urea] | low | 
moderate | Cc1ccccc1NC(=O)Nc1cccnc1 [Compound 10, 1-(2-methylphenyl)-3-(pyridin-3-yl)urea] | low | 
very good | Cc1ccccc1NC(=S)Nc1cccc(C#N)c1 [Compound 18, 1-(3-cyanophenyl)-3-(2-methylphenyl)thiourea] | low | 
good | Cc1ccccc1NC(=O)NCCN(C)C [Compound 26, 3-[2-(dimethylamino)ethyl]1-(2-methylphenyl)urea] | low | 
good | Cc1ccccc1NC(=O)Nc1ccccn1 [Compound 9, 1-(2-methylphenyl)-3-(pyridin-2-yl)urea] | low | 
good | CSc1ccc(NC(=O)Nc2ccccc2C)cc1 [Compound 14, 3-(2-methylphenyl)-1-[4-(methylsulfanyl)phenyl]urea] | low | 
very good | Cc1ccccc1NC(=S)N1CCOCC1 [Compound 30, N-(2-methylphenyl)morpholine-4-carbothioamide] | low | 
Moderate at 100 μM | Cc1ccccc1NC(=O)Nc1ccc(Br)cc1 [Compound 41, 1-(4-bromophenyl)-3-(o-tolyl)urea] | Low | 
good | Cc1ccccc1NC(=S)NCCN(C)C [Compound 29, 3-[2-(dimethylamino)ethyl]-1-(2-methylphenyl)thiourea] | low | 
good | Cc1ccccc1NC(=O)Nc1cccc([S+](C)[O-])c1 (stereo not shown) [Compound 5, 3-(3-methanesulfinylphenyl)-1-(2-methylphenyl)urea] | very low | 
good | CCCCCCCCNC(=S)Nc1ccccc1C [Compound 28, 1-(2-methylphenyl)-3-octylthiourea] | low | 
moderate | CCCCCCCCNC(=O)Nc1ccccc1C [Compound 25, 1-(2-methylphenyl)-3-octylurea] | low | 
moderate | CC1CCCCC1NC(=O)Nc1cccc(C#N)c1 (stereo not shown) [Compound 23, 1-(3-cyanophenyl)-3-(2-methylcyclohexyl)urea] | low | 
good | Cc1ccccc1NC(=O)N1CCOCC1 [Compound 27, N-(2-methylphenyl)morpholine-4-carboxamide] | low | 
good | COc1ccc(NC(=O)Nc2ccccc2C)cc1 [Compound 15, 1-(4-methoxyphenyl)-3-(2-methylphenyl)urea] | low | 
good | CC(=O)c1cccc(NC(=O)Nc2ccccc2C)c1 [Compound 2, 1-(3-acetylphenyl)-3-(2-methylphenyl)urea] | very low | 

Further lines, the compound ahead of its results:

Compound | Solubility in cell medium [1] | Toxicity [2, 3] | Toxicity [2]
N#Cc1ccc(NC(=O)Nc2ccccn2)cc1 [Compound 8, 3-(4-cyanophenyl)-1-(pyridin-2-yl)urea] | moderate | toxic at 100, 32, 10 μM | 
COc1cccc(NC(=O)Nc2ccccc2C)c1 [Compound 13, 3-(3-methoxyphenyl)-1-(2-methylphenyl)urea] | good | toxic at 100 μM | 
N#Cc1cccc(NC(=O)Nc2ccccn2)c1 [Compound 11, 3-(3-cyanophenyl)-1-(pyridin-2-yl)urea] | moderate | toxic at 100 μM | 
CSc1cccc(NC(=O)Nc2cccc(NC(=O)Nc3cccc(SC)c3)c2)c1 [Compound 33, 1,1′-(1,3-phenylene)bis(3-(3-(methylthio)phenyl)urea)] | poor | toxic at 100 μM | 
O=C(Nc1cccc(NC(=O)Nc2cccc([N+](=O)[O-])c2)c1)Nc1cccc([N+](=O)[O-])c1 [Compound 31, 1,1′-(1,3-phenylene)bis(3-(3-nitrophenyl)urea)] | very poor |  | toxic at 100 μM
N#Cc1cccc(NC(=O)Nc2cccnc2)c1 [Compound 7, 3-(3-cyanophenyl)-1-(pyridin-3-yl)urea] | moderate | low | 
COc1cccc(NC(=O)Nc2cccc(NC(=O)Nc3cccc(OC)c3)c2)c1 [Compound 34, 1,1′-(1,3-phenylene)bis(3-(3-methoxyphenyl)urea)] | poor | toxic at 100 μM | 
CC1CCCCC1NC(=O)Nc1cccc([N+](=O)[O-])c1 (stereo not shown) [Compound 21, 3-(2-methylcyclohexyl)-1-(3-nitrophenyl)urea] | moderate | toxic at 100 μM | 
CCCCCCCCNC(=O)Nc1ccc(C#N)cc1 [Compound 24, 1-(4-cyanophenyl)-3-octylurea] | good | low | 
Cc1ccccc1NC(=O)Nc1cccc(Br)c1 [Compound 16, 1-(3-bromophenyl)-3-(2-methylphenyl)urea] | moderate | toxic at 100 μM | 
N#Cc1cccc(NC(=O)Nc2ncccn2)c1 [Compound 12, 3-(3-cyanophenyl)-1-(pyrimidin-2-yl)urea] | poor | toxic at 100 μM | 
Cc1ccccc1NC(=O)NCCCOCCOCCOCCCNC(=O)Nc1ccccc1C [Compound 38, 1-(2-methylphenyl)-3-(3-{2-[2-(3-{[(2-methylphenyl)carbamoyl]-amino}propoxy)ethoxy]ethoxy}propyl)urea] | good | toxic at 50 μM | 
Cc1ccccc1NC(=S)Nc1cccc([N+](=O)[O-])c1 [Compound 17, 3-(2-methylphenyl)-1-(3-nitrophenyl)thiourea] | good | toxic at 100 μM | 
